Measurements as given in patent publication US20050215614A1, “Substituted indoles and their use as hcv inhibitors” (Rigel Pharmaceuticals, Inc., priority 2003, published 2005).

System: HCV replicon
Assay: HCV Replicon Assay (luciferase, 5-2 Luc replicon cells)
Format: cell-based
Settings: 5-2 Luc replicon cells (Huh7), 24-48 hours with compound, luciferase counts
Procedure: Actively dividing 5-2 Luc replicon cells were seeded at the density of 5000-7500 cells/well in the volume of 90 μl/well into 96 well plate(s). The cells were then incubated at 37° C. and 5% CO2 for 24 hours. The 5-2 cells are replicon cells licensed from Ralf Bartenschlager (Germany) and have a self-replicating RNA molecule in the Huh7 cell; the RNA contains HCV non-structural proteins that make the self-replication possible.
Various concentrations of compounds (in the volume of 10 μl) were added into each well 24 hours after seeding the cells. The cells were incubated for another 24-48 hours before luciferase assay.
After incubating the 5-2 Luc replicon cells with the compounds for 24-48 hours, media were aspirated from each well and Bright-Glo (Promega) luciferase assay reagents were added to each well according to the manufacturer′s manual. Briefly, the Bright-Glo reagent was diluted with equal volume of PBS and an aliquote (100 μl) was added to each well. After incubating the plate at room temperature for 5 minutes, luciferase counts were taken using a luminometer.

Structure (SMILES) | Activity (concentration of inhibitory activity)
Cc1cc2cc(NC(=O)C3CCCC3)ccc2n1C(=O)c1c(F)cccc1F [Compound 16d-1, 5-Cyclopentanecarbonylamino-1-(2′,6′-difluorobenzoyl)-2-methylindole] | b (“b” indicates activity is at a concentration greater than 10 micromolar)
Cc1cc2cc(NC(=O)C3CCC3)ccc2n1C(=O)c1c(F)cccc1F [Compound 16d-2, 5-Cyclobutanecarbonylamino-1-(2′,6′-difluorobenzoyl)-2-methylindole] | b (“b” indicates activity is at a concentration greater than 10 micromolar)
Cc1cc2cc(NC(=O)C3CC3)ccc2n1C(=O)c1c(F)cccc1F [Compound 16d-3, 5-Cyclopropanecarbonylamino-1-(2′,6′-difluorobenzoyl)-2-methylindole] | b (“b” indicates activity is at a concentration greater than 10 micromolar)
Cc1cc2cc(NC(=O)C3CCCC3)ccc2n1C(=O)c1c(F)cccc1Cl [Compound 16e-1, 1-(2′-Chloro-6′-fluorobenzoyl)-5-cyclopentanecarbonylamino-2-methylindole] | a (“a” indicates inhibitory activity at a concentration of less than 10 micromolar)
Cc1cc2cc(NC(=O)C3CCCCC3)ccc2n1C(=O)c1c(F)cccc1Cl [Compound 16e-2, 1-(2′-Chloro-6′-fluorobenzoyl)-5-Cyclohexanecarbonylamino-2-methylindole] | a (“a” indicates inhibitory activity at a concentration of less than 10 micromolar)
Cc1cc2cc(NC(=O)C3CCC3)ccc2n1C(=O)c1c(F)cccc1Cl [Compound 16e-3, 1-(2′-Chloro-6′-fluorobenzoyl)-5-cyclobutanecarbonylamino-2-methylindole] | a (“a” indicates inhibitory activity at a concentration of less than 10 micromolar)
Cc1cc2cc(NC(=O)C3CC3)ccc2n1C(=O)c1c(F)cccc1Cl [Compound 16e-4, 1-(2′-Chloro-6′-fluorobenzoyl)-5-cyclopropanecarbonylamino-2-methylindole] | a (“a” indicates inhibitory activity at a concentration of less than 10 micromolar)
Cc1cc2cc(NC(=O)C3CCC(=O)C3)ccc2n1C(=O)c1c(F)cccc1Cl (centres unmarked) [Compound 16e-5, 1-(2′-Chloro-6′-fluorobenzoyl)-5-(3-oxo-1-cyclopentanecarbonyl)amino-2-methylindole] | a (“a” indicates inhibitory activity at a concentration of less than 10 micromolar)
Cc1cccc(C)c1C(=O)n1c(C)cc2cc(NC(=O)C3CCCC3)ccc21 [Compound 16f-1, 5-Cyclopentanecarbonylamino-1-(2′,6′-dimethylbenzoyl)-2-methylindole] | a (“a” indicates inhibitory activity at a concentration of less than 10 micromolar)
Cc1cccc(C)c1C(=O)n1c(C)cc2cc(NC(=O)C3CCCCC3)ccc21 [Compound 16f-2, 5-Cyclohexanecarbonylamino-1-(2′,6′-dimethylbenzoyl)-2-methylindole] | a (“a” indicates inhibitory activity at a concentration of less than 10 micromolar)
Cc1cccc(C)c1C(=O)n1c(C)cc2cc(NC(=O)C3CCC3)ccc21 [Compound 16f-3, 5-Cyclobutanecarbonylamino-1-(2′,6′-dimethylbenzoyl)-2-methylindole] | a (“a” indicates inhibitory activity at a concentration of less than 10 micromolar)
Cc1cccc(C)c1C(=O)n1c(C)cc2cc(NC(=O)C3CC3)ccc21 [Compound 16f-4, 5-Cyclopropanecarbonylamino-1-(2′,6′-dimethylbenzoyl)-2-methylindole] | a (“a” indicates inhibitory activity at a concentration of less than 10 micromolar)
Cc1cccc(C)c1C(=O)n1c(C)cc2cc(NC(=O)C3CCC(=O)C3)ccc21 (centres unmarked) [Compound 16f-5, 1-(2′,6′-Dimethylbenzoyl)-5-(3-oxo-1-cyclopentanecarbonyl)amino-2-methylindole] | a (“a” indicates inhibitory activity at a concentration of less than 10 micromolar)
Cc1cc2cc(NC(=O)C3CCCC3)ccc2n1C(=O)c1cc(Cl)nc(Cl)c1 [Compound 16g-1, 5-Cyclopentanecarbonylamino-l-(2′,6′-dichloro-4′-pyridylcarbonyl)-2-methylindole] | a (“a” indicates inhibitory activity at a concentration of less than 10 micromolar)
Cc1cc2cc(NC(=O)C3CC3)ccc2n1C(=O)c1cc(Cl)nc(Cl)c1 [Compound 16g-2, 5-Cyclopropanecarbonylamino-1-(2′,6′-dichloro-4′-pyridylcarbonyl)-2-methylindole] | a (“a” indicates inhibitory activity at a concentration of less than 10 micromolar)
Cc1cc2cc(NC(=O)C3CCC(=O)C3)ccc2n1C(=O)c1cc(Cl)nc(Cl)c1 (centres unmarked) [Compound 16g-3, 1-(2′,6′-Dichloro-4-pyridylcarbonyl)-5-(3-oxo-1-cyclopentanecarbonyl)amino-2-methylindole] | a (“a” indicates inhibitory activity at a concentration of less than 10 micromolar)
Cc1cc2cc(NC(=O)C3CCCC3)ccc2n1C(=O)c1ccccc1Cl [Compound 18, 1-(2′-Chlorobenzoyl)-5-cyclopentanecarbonylamino-2-methylindole] | b (“b” indicates activity is at a concentration greater than 10 micromolar)
COc1ccccc1C(=O)n1c(C)cc2cc(NC(=O)C3CCCC3)ccc21 [Compound 19, 1-(o-Anisoyl)-5-cyclopentanecarbonylamino-2-methylindole] | a (“a” indicates inhibitory activity at a concentration of less than 10 micromolar)
CC(C)(C)c1cc2cc(NC(=O)CCN3CCCCC3)ccc2[nH]1 [Compound 213] | b (“b” indicates activity is at a concentration greater than 10 micromolar)

Structure (SMILES) | Activity (concentration of inhibitory activity)
CC(=O)N1CCC(C(=O)Nc2ccc3[nH]c(C(C)(C)C)cc3c2)CC1 [Compound 214] | b (“b” indicates activity is at a concentration greater than 10 micromolar)
CC(C)(C)c1cc2cc(NC(=O)CCc3c[nH]c4ccccc34)ccc2[nH]1 [Compound 215] | b (“b” indicates activity is at a concentration greater than 10 micromolar)
CC(C)(C)c1cc2cc(NC(=O)Cc3ccc4c(c3)OCO4)ccc2[nH]1 [Compound 216] | b (“b” indicates activity is at a concentration greater than 10 micromolar)
CC(C)(C)c1cc2cc(NC(=O)Cc3cccnc3)ccc2[nH]1 [Compound 217] | b (“b” indicates activity is at a concentration greater than 10 micromolar)
CC(=O)NCCC(=O)Nc1ccc2[nH]c(C(C)(C)C)cc2c1 [Compound 218] | b (“b” indicates activity is at a concentration greater than 10 micromolar)
CC(C)(C)c1cc2cc(NC(=O)CC(c3ccccc3)c3ccccc3)ccc2[nH]1 [Compound 219] | b (“b” indicates activity is at a concentration greater than 10 micromolar)
CC(C)(C)c1cc2cc(NC(=O)Cc3ccc(F)cc3)ccc2[nH]1 [Compound 220] | b (“b” indicates activity is at a concentration greater than 10 micromolar)
CC(C)(C)c1cc2cc(NC(=O)Cc3ccc(-c4ccccc4)cc3)ccc2[nH]1 [Compound 221] | b (“b” indicates activity is at a concentration greater than 10 micromolar)
CN(C)CCCC(=O)Nc1ccc2[nH]c(C(C)(C)C)cc2c1 [Compound 222] | b (“b” indicates activity is at a concentration greater than 10 micromolar)
COc1cscc1C(=O)Nc1ccc2[nH]c(C(C)(C)C)cc2c1 [Compound 223] | a (“a” indicates inhibitory activity at a concentration of less than 10 micromolar)
CCCC(=O)Nc1ccc2[nH]c(C(C)(C)C)cc2c1 [Compound 224] | b (“b” indicates activity is at a concentration greater than 10 micromolar)
CC(C)(C)c1cc2cc(NC(=O)c3ccccc3)ccc2[nH]1 [Compound 225] | b (“b” indicates activity is at a concentration greater than 10 micromolar)
CC(C)(C)c1cc2cc(NC(=O)c3cccc(F)c3)ccc2[nH]1 [Compound 226] | b (“b” indicates activity is at a concentration greater than 10 micromolar)
CC(C)(C)c1cc2cc(NC(=O)c3cccc(Cl)c3)ccc2[nH]1 [Compound 227] | b (“b” indicates activity is at a concentration greater than 10 micromolar)
CC(C)(C)c1cc2cc(NC(=O)c3cc4ccccc4s3)ccc2[nH]1 [Compound 228] | b (“b” indicates activity is at a concentration greater than 10 micromolar)
CC(C)(C)c1cc2cc(NC(=O)c3sccc3Cl)ccc2[nH]1 [Compound 229] | b (“b” indicates activity is at a concentration greater than 10 micromolar)
CC(C)(C)c1cc2cc(NC(=O)c3ccco3)ccc2[nH]1 [Compound 230] | b (“b” indicates activity is at a concentration greater than 10 micromolar)
Cc1cn(C(=O)c2c(Cl)cccc2Cl)c2ccc(NC(=O)C3(c4ccc(Cl)cc4)CCCC3)cc12 [Compound 231] | b (“b” indicates activity is at a concentration greater than 10 micromolar)
Cc1cn(C(=O)c2c(Cl)cccc2Cl)c2ccc(NC(=O)c3c(Cl)cccc3Cl)cc12 [Compound 232] | b (“b” indicates activity is at a concentration greater than 10 micromolar)
